US20110251211A9, “METHODS OF USING SUBSTITUTED ISOXAZOLO PYRIDINONES AS DISSOCIATED GLUCOCORTICOIDS” (priority 2009, published 2011)

How the values were obtained:
Assay type in all cases: cell-based
GR [1] = target: T1, GR (Homo sapiens, UniProt P04150); experiment: GR transrepression of AP1 in AD293 cells (AP1-Luc dual-luciferase reporter)
T1 construct: expressed in transfected cells; host or cells: AD293 cells
T1 sequence (P04150 1-777): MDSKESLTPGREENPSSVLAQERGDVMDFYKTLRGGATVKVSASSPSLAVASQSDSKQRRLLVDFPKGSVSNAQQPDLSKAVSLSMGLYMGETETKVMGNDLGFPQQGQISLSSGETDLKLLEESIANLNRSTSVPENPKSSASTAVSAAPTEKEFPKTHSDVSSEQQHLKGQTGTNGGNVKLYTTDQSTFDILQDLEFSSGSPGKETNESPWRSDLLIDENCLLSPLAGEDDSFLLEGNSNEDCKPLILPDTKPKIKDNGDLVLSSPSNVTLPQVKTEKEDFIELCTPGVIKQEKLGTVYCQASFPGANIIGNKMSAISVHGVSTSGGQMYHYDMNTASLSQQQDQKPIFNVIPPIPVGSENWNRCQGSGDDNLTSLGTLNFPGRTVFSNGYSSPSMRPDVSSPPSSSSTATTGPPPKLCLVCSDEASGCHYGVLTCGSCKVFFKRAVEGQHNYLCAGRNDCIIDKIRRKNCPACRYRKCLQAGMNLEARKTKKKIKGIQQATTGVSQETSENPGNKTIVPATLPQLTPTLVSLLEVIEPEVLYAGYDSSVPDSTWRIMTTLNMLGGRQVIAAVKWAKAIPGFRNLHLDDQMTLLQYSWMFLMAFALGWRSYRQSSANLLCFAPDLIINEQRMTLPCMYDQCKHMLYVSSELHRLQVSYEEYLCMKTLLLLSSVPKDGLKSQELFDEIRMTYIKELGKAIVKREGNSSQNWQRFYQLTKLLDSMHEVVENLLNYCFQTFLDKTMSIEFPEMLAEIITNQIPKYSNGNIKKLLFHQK
Protocol: FIG. 9 is a bar graph showing the dose-response of Compound #53 on GR transrepression of AP1 in AD293 cells.
GR Transrepression of AP1 in AD293 Cells Transfected with 10 ng GR
AD293 cells were transfected with 10 ng GR, 100 ng AP1-Luc reporter together with 5 ng Renilla control plasmids, then induced by EtOH (vehicle control), Dexamethasone (10 nM), Compound #53 (5 μM), AL438 (1 μM). Dual-Luciferase values were measured by Promega standard manual.
GR Transpression of AP 1 in AD293 Cells Transfected with 50 ng GR
AD293 cells were transfected with 50 ng GR, 100 ng AP1-Luc reporter together with 5 ng Renilla control plasmids, then induced by PMA+EtOH (vehicle control), PMA+Dexamethasone (10 nM), PMA+Compound #53 (5 μM). Dual-Luciferase values were measured by Promega standard manual.

GR [2] = target: T1, GR; experiment: GR transrepression of NF-kB in AD293 cells (pNF-kB-Luc dual-luciferase reporter)
Protocol: FIG. 10 is a bar graph showing the dose-response of Compound #53 on GR transrepression of NF-kB in AD293 cells.
GR Transrepression of NF-kB in AD293 Cells Transfected with 100 ng GR
[…] Dual-Luciferase values were measured by Promega standard manual.

GR [3] = target: T1, GR; experiment: GR transactivation on MMTV in AD293 cells (pHHLuc dual-luciferase reporter); conditions: FIG. 5
Protocol: GR Transactivation on MMTV in∘AD293 Cells Transfected with 0.5 ng GR
AD293 cells were transfected with 0.5 ng GR, 100 ng pHHLuc reporter together with 5 ng Renilla control plasmids, then induced by EtOH (vehicle control), Dexamethasone (10 nM), Compound #53 (5 μM), AL438 (1 μM) and DMSO (vehicle control). Dual-Luciferase values were measured by Promega standard manual, Compound #53's transactivation activity on MMTV in AD293 cells is shown in FIG. 5.

[4] = dose-response repression experiments

CN(C)Cc1ccc(-c2cc3onc(-c4ccccc4)c3c(=O)n2C)cc1 [Compound #53, 6-(4-((dimethylamino)methyl)phenyl)-5-methyl-3-phenylisoxazolo[4,5-c]pyridin-4(5H)-one]
GR transrepression activity on AP1 compared with currently used GR ligands (GR [1]; FIGS. 6-7): stronger GR transrepression activity than currently used GR ligands | fold repression for AP1 (GR [1]; at 50 μM, dose-response, FIG. 9): about 2000 | AP-1 activity on the reporter (GR [1]; [4]): almost zero | GR transrepression activity on NF-kB compared with currently used GR ligands (GR [2]; FIG. 8): stronger GR transrepression activity than currently used GR ligands | fold repression of NF-kB (GR [2]; at 50 μM, dose-response, FIG. 10): about 1000 | NF-kB activity on the reporter (GR [2]; [4]): almost zero | GR transactivation activity (GR [3]): minimal GR transactivation activity
